Test results: patent US6417177B1, “Chloroquine derivatives for the treatment of Parkinson's disease” (Alpha Research Group, LLC, priority 1999, dated 2002)

Tests used:
[1] = system: Parkinson's Disease; details: cited from earlier work
[2] = in vitro comparison of chloroquine phosphate enantiomers for binding to neuromelanin; details: compared between enantiomers of chloroquine phosphate
Method: (§1) Enantiomers of chloroquine phosphate were isolated according to the procedure of Stalcup, A. M. et al. (1996), Analytical Chemistry 68:2248-50. Comparisons of these enantiomers with respect to ability to inhibit diamine oxidase and bind to neuromelanin are performed in vitro.

[3] = biological target: T1, diamine oxidase (Homo sapiens, UniProt P19801); experiment: in vitro comparison of chloroquine phosphate enantiomers for inhibition of diamine oxidase; format: biochemical; details: compared between enantiomers of chloroquine phosphate
T1 sequence (P19801 20-751): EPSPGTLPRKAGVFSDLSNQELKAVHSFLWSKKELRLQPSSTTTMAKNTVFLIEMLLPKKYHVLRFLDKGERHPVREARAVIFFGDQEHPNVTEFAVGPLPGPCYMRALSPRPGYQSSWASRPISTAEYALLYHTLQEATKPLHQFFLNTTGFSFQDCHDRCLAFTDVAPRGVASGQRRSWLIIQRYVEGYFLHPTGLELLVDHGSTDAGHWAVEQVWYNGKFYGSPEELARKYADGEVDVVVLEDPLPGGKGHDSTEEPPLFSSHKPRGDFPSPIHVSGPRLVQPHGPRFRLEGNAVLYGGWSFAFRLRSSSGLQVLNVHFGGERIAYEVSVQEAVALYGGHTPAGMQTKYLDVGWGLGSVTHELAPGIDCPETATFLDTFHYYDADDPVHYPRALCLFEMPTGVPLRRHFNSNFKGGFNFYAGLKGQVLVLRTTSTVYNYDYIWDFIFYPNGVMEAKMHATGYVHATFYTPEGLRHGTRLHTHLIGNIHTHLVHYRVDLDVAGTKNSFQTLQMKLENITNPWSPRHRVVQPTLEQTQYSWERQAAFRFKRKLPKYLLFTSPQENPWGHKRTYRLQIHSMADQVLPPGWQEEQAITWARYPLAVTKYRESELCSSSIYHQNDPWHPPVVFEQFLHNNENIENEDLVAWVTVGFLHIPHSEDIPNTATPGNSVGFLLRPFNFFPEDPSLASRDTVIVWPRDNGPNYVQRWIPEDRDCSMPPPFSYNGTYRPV
Method: as §1

In the case of `C#CCN(C)[C@H](C)Cc1ccccc1` [Deprenyl], the “delay of the need to commence L-DOPA treatment” value ([1]; American researchers) is given as “up to nine months”, the “increase in patient mortality” value ([1]; co-administered with L-DOPA, compared to the group treated with L-DOPA only) is given as 60% and the neural protection ([1]; two-year patient follow-up examinations) is given as “no neural protection was found”.

With `CCN(CC)CCCC(C)Nc1ccnc2cc(Cl)ccc12` (single isomer, unassigned) [active enantiomer] the “ability to bind neuromelanin” value [2] was “significantly enhanced ability” and the “ability to inhibit diamine oxidase” value [3] was “significantly enhanced ability”.
